For series [1], the system named is human STING alleles. The note with it: cited from earlier work.
The test system of series [2] is recurrent or metastatic head and neck squamous cell carcinoma. The settings on record: in conjunction with pembrolizumab; cited from earlier work.
Series [3] has as its system GC B cells and follicular helper T (Tfh) cells. In words: Intradermal immunization with OVA: draining lymph node, GC B cells and Tfh cells. The note with it: 10 days after second i.d. injection of the ear pinna. The class given is in vivo, C57BL/6J mice. On the procedure: (§1) For all experiments, six- to eight-week-old female C57BL/6J mice were purchased from the Jackson Laboratory (Bar Harbor, ME). They were housed in ventilated cages with ad libitum access to food and water, with three to four animals per box. The room was kept at 20±2° C. and 50±15% relative humidity, with a light/dark cycle of 12 hours. An acclimatization period of one week was given to the mice before the onset of the experiments. The Purdue University Animal Care and Use Committee gave approval to all animal experiments. Mice received 20 μl of vaccine through intradermal injection into the pinna of the ear. The vaccines were administered again after 7 or 21 days. Inhalational isoflurane was used to induce anesthesia in mice. Blood and tissue samples were collected 10 days after the second immunization, unless otherwise specified.
For flow cytometry analysis, single-cell suspensions were prepared from isolated splenocytes or lymph nodes and washed with Cell Staining Buffer (CSB; BioLegend, San Diego, CA). The staining protocols were conducted in accordance with the manufacturer's instructions, and unless otherwise specified, all mAbs were obtained from BioLegend. […] Flow cytometry was conducted using an Attune NxT flow cytometer (Invitrogen, Waltham, MA), and the data were analyzed using FlowJo software (FlowJo, Ashland, OR).

Series [4] concerns IRF3 signaling pathway. In words: IRF-Lucia luciferase reporter in THP1-Dual cells. The class given is cell-based, human. The note with it: Nano-11 80 μg/ml, ADU-S100 5 μg/ml; FIG. 1F. How it is done: (§2) For preparation of cells for activation in vitro, human THP-1 cells (TIB-202; American Type Culture Collection Manassas, VA) were cultured in complete RPMI (RPMI 1640 supplemented with 2 mM L-glutamine, 55 μM β-mercaptoethanol, 1×non-essential amino acids, 10 mM HEPES, 100 U/ml penicillin, 100 μg/ml streptomycin, and 0.25 μg/ml amphotericin) with 10% FBS. Cells were seeded at a density of 5×10^5 cells/well in a 96-well plate, stimulated with Nano-11 (80 μg/ml) and ADU-S100 (5 μg/ml) for 24 hours and 48 hours at 37° C. with 5% CO2, and then processed for flow cytometry analysis. Similarly, the NF-κB-SEAP and IRF-Luc reporter THP1-Dual cells (InvivoGen, San Diego, CA) were grown at a density of 1×10^5 cells/well in a 96-well plate in complete RPMI supplemented with 10% FBS, 100 μg/ml zeocin, 100 μg/ml normocin, and 10 μg/ml blasticidin. THP1-Dual cells were subsequently stimulated with Nano-11 (80 μg/ml) and ADU-S100 (5 μg/ml) for 24 hours and 48 hours at 37° C. with 5% CO2, and the supernatants were collected for NF-κB and IRF pathway activation quantification.

Series [5] has as its system metastatic solid tumors or lymphomas. The settings on record: intra-tumoral injection, patients; cited from earlier work.
Series [6] concerns human THP-1 cells. In words: CD80 and CD86 expression on stimulated THP-1 cells (flow cytometry). The class given is cell-based. The settings on record: Nano-11 80 μg/ml, ADU-S100 5 μg/ml, 24 and 48 hours. How it is done:
as §2, with “Similarly, the NF-κB-SEAP and IRF-Luc reporter THP1-Dual cells (InvivoGen, San Diego, CA) were grown at a density of 1×10^5 cells/well in a 96-well plate in complete RPMI supplemented with 10% FBS, 100 μg/ml zeocin, 100 μg/ml normocin, and 10 μg/ml blasticidin.” left out
For flow cytometry analysis, single-cell suspensions were prepared from isolated splenocytes or lymph nodes and washed with Cell Staining Buffer (CSB; BioLegend, San Diego, CA). […] Flow cytometry was conducted using an Attune NxT flow cytometer (Invitrogen, Waltham, MA), and the data were analyzed using FlowJo software (FlowJo, Ashland, OR).
(In general: In flow cytometry, cells or beads pass a laser one at a time.)

Series [7] deals with OVA. In words: ELISA of serum OVA-specific IgG, IgG1, IgG2c titers. The class given is in vivo, C57BL/6J mice. The settings on record: 10 days after second i.d. vaccination with OVA. How it is done:
as §1
OVA-specific IgG, IgG1, and IgG2c titers were measured by enzyme-linked immunosorbent assays (ELISA) on serum samples taken 10 days following the second vaccination, as previously reported (Hernandez-Franco (2021)). […] The reaction was stopped with the addition of 50 μl 2 M sulfuric acid, and absorbance at 450 nm (OD 450) was determined using the Synergy HT microplate reader (BioTek, Winooski, VT). End-point titers for OVA-specific antibodies were determined when the dilution at which OD 450 nm approached 0.2. […]

Series [8] deals with tumor-specific CD8+ T cells. The settings on record: intratumoral injection; cited from earlier work.
The test system of series [9] is NF-κB signaling pathway. In words: NF-κB-SEAP reporter in THP1-Dual cells. It counts as cell-based, human. The note with it: Nano-11 80 μg/ml, ADU-S100 5 μg/ml; FIG. 1E. How it is done: as §2
Series [10] has as its system SIINFEKL-specific B3Z CD8+ T cell hybridoma. In words: B3Z antigen cross-presentation assay with DC2.4 cells. The class given is cell-based, murine. The settings on record: OVA with 80 μg/ml Nano-11 and/or 5 μg/ml ADU-S100; OD 590. On the procedure:
The B3Z CD8^+ T cell hybridoma cell line that expresses β-galactosidase under the control of the IL-2 promoter was utilized to detect antigen cross-presentation of the OVA 257-264 (SIINFEKL, InvivoGen, San Diego, CA) peptide (see Cruz et al., Annu. Rev. Immunol. 35: 149-176 (2017), which is incorporated herein by reference). Briefly, DC2.4 cells at 1×10^5 cells/well on 96-well round bottom plates were cultured in complete RPMI containing 10% FBS. The DC2.4 cells were stimulated with 10, 100, or 1,000 μg/ml OVA adsorbed to 80 μg/ml Nano-11 or the NanoST nanoparticle adjuvant comprised of 80 μg/ml Nano-11 and 5 μg/ml ADU-S100 (NanoST) for 3 hours at 37° C. with 5% CO2. Cells in media only or treated with 0.5 μg/ml OVA 257-264 (SIINFEKL) served as negative and positive controls, respectively. The cells were centrifuged at 300×g for 5 minutes and then washed three times with 200 μl of sterile PBS/0.1% BSA. Following fixation with 200 μl of phosphate-buffered saline (PBS)/0.2% paraformaldehyde for 15 minutes at 4° C., cells were washed twice with complete RPMI. Each well was seeded with 1×10^5 B3Z cells in complete RPMI containing 10% FBS for 16 hours at 37° C. with 5% CO2. […] After 2, 4, 6, 8, 12, and 24 hours, the conversion of […] was quantified by measuring the absorbance at 590 nm (OD 590) using a microplate reader (BioTek Instruments, Winooski, VT).

Series [11] concerns E.G7-OVA tumors. In words: Therapeutic intradermal vaccination of E.G7-OVA-bearing mice. The settings on record: by day 10.
Description: (§3) To mimic therapeutic immunotherapy, C57BL/6J mice were injected subcutaneously (s.c.) with 1.0×10^6 B16-OVA or 2.5×10^6 E.G7-OVA cells on day 0 to establish the tumor model. The B16-OVA-bearing mice received the same intradermal prophylactic vaccination (OVA, Nano-11+OVA, or NanoST+OVA) 8 days after tumor inoculation, followed by a second injection on day 15. The identical vaccination regimen was administered to E.G7-OVA-26 bearing mice at 1 and 21 days after tumor inoculation. The tumor endpoint measurements were recorded as described under prophylactic cancer vaccines. Mice without visible tumors were deemed tumor-free and euthanized 32 or 33 days post-tumor inoculation.
For series [12], the system named is E.G7-OVA lymphoma cells. In words: Preventive intradermal vaccination, E.G7-OVA tumor challenge. The class given is in vivo, C57BL/6J mice. The note with it: two i.d. immunizations, three-week interval, then s.c. inoculation.
Description: (§4) The efficacy of preventive cancer vaccines was investigated by two intradermal injections with OVA, Nano-11+OVA, NanoST+OVA, or PBS with a 21-day interval. Eleven days following the second injection, mice were inoculated subcutaneously in the flank with 1.0×10^6 B16-OVA, B16, or 2.5×10^6 E.G7-OVA cells suspended in 100 μl of PBS. […] Using a caliper, the length (maximum longitudinal dimension) and width (maximum transverse dimension) of the subcutaneous tumor were measured in order to determine the approximate volume. Tumor volume was calculated using the ellipsoidal formula: V=½×(Length×Width^2). Each tumor was measured by three observers to account for interobserver variability. The tumor endpoint measurements were taken when the tumors reached a volume of 2,000 mm^3, when the tumors became ulcerated, when the body condition scores dropped below 2, or when the mice became moribund. Mice without palpable tumors 32 days after tumor inoculation were considered tumor-free and euthanized.
(§5) To evaluate the contribution of CD4^+ and CD8^+ T cells response to prophylactic-mediated vaccine protection against B16-OVA and E.G7-OVA tumor formation, C57BL/6J mice were vaccinated with OVA, Nano-11+OVA, or NanoST+OVA, and 21 days later the vaccination was repeated. […] The tumor growth and survival of mice were monitored for 33 days post-tumor inoculation.
For series [13], the system named is B16-OVA tumors. In words: Therapeutic intradermal vaccination of B16-OVA-bearing mice. It counts as in vivo, C57BL/6J mice. The note with it: i.d. vaccination at 8 and 15 days post-tumor inoculation.
Description: as §3
For series [14], the system named is B16-OVA melanoma cells. In words: Preventive intradermal vaccination, B16-OVA tumor challenge. The class given is in vivo, C57BL/6J mice. The note with it: two i.d. immunizations, three-week interval, then s.c. inoculation.
Description: as §4, §5

In the case of `Nc1ncnc2c1ncn2[C@@H]1O[C@@H]2COP(=O)([S-])O[C@@H]3[C@H](O)[C@@H](COP([O-])(=S)O[C@H]2[C@H]1O)O[C@H]3n1cnc2c(N)ncnc21.[Na+].[Na+]` (stereo partly drawn) [ADU-S100], in series [1], the “affinity to human STING alleles” value is recorded as “superior affinity to all known human STING alleles”. In addition, in series [2], the adverse reactions entry is “no adverse reactions” and the anti-tumor efficacy result is reported as “only modest anti-tumor efficacy”. The “size of draining lymph node (superficial parotid)” value in series [3] was “enlarged draining lymph node”. For the same compound, the IRF3 activation result in series [4] was “activated NF-κB and IRF3”. For the same compound, in series [5], the anti-tumor activity result is listed as “failed to demonstrate conclusive evidence of anti-tumor activity” and the dose-limiting toxicities result is “no dose-limiting toxicities”. For the same compound, in series [6] (FIGS. 1A, 1C), the CD80 expression result is given as “induced CD80 expression”. The CD86 expression entry in series [6] (FIGS. 1B, 1D) is reported as “neither of which had any effect on CD86 expression”. In addition, in [7], the “anti-OVA IgG1 titer” value is “enhanced anti-OVA total IgG and IgG1 titers”; the “anti-OVA total IgG titer” value was “enhanced anti-OVA total IgG and IgG1 titers”. Besides, in [8], the “generation of tumor-specific CD8+ T cells” value is “leads to the generation of tumor-specific CD8”. The NF-κB activation result in [9] was “activated NF-κB and IRF3”. Besides, in series [10], the “cross-presentation of OVA and activation of B3Z CD8+ T cells by DC2.4 cells” value is reported as “decreased the cross-presentation of OVA”.

Consider “OVA: endotoxin-free ovalbumin, model tumor-specific antigen, given unadjuvanted”, for which the tumor formation in [11] is given as 100%. Besides, in series [12], the “development of E.G7-OVA lymphomas” value is given as “positive for tumors”. For the same compound, in series [13], the “survival of B16-OVA tumor-bearing mice” value was “none of the OVA-vaccinated mice survived to day 20”. The “development of B16-OVA tumors” value in series [14] is on record as “positive for tumors”.

The values above are taken from US20260273046A1, “METHOD OF VACCINATING FOR CANCER AND DEVICE AND KIT THEREFOR” (priority 2023, published 2026).
